The text below walks through data of patent publication US7244744B2, “Piperidines” (Icagen, Inc., priority 2001, dated 2007).

The target in this assay is T1, PN3 (Homo sapiens, UniProt Q9Y5Y9).
T1 construct: expressed in transfected cells
T1 sequence (Q9Y5Y9 whole entry, species assumed): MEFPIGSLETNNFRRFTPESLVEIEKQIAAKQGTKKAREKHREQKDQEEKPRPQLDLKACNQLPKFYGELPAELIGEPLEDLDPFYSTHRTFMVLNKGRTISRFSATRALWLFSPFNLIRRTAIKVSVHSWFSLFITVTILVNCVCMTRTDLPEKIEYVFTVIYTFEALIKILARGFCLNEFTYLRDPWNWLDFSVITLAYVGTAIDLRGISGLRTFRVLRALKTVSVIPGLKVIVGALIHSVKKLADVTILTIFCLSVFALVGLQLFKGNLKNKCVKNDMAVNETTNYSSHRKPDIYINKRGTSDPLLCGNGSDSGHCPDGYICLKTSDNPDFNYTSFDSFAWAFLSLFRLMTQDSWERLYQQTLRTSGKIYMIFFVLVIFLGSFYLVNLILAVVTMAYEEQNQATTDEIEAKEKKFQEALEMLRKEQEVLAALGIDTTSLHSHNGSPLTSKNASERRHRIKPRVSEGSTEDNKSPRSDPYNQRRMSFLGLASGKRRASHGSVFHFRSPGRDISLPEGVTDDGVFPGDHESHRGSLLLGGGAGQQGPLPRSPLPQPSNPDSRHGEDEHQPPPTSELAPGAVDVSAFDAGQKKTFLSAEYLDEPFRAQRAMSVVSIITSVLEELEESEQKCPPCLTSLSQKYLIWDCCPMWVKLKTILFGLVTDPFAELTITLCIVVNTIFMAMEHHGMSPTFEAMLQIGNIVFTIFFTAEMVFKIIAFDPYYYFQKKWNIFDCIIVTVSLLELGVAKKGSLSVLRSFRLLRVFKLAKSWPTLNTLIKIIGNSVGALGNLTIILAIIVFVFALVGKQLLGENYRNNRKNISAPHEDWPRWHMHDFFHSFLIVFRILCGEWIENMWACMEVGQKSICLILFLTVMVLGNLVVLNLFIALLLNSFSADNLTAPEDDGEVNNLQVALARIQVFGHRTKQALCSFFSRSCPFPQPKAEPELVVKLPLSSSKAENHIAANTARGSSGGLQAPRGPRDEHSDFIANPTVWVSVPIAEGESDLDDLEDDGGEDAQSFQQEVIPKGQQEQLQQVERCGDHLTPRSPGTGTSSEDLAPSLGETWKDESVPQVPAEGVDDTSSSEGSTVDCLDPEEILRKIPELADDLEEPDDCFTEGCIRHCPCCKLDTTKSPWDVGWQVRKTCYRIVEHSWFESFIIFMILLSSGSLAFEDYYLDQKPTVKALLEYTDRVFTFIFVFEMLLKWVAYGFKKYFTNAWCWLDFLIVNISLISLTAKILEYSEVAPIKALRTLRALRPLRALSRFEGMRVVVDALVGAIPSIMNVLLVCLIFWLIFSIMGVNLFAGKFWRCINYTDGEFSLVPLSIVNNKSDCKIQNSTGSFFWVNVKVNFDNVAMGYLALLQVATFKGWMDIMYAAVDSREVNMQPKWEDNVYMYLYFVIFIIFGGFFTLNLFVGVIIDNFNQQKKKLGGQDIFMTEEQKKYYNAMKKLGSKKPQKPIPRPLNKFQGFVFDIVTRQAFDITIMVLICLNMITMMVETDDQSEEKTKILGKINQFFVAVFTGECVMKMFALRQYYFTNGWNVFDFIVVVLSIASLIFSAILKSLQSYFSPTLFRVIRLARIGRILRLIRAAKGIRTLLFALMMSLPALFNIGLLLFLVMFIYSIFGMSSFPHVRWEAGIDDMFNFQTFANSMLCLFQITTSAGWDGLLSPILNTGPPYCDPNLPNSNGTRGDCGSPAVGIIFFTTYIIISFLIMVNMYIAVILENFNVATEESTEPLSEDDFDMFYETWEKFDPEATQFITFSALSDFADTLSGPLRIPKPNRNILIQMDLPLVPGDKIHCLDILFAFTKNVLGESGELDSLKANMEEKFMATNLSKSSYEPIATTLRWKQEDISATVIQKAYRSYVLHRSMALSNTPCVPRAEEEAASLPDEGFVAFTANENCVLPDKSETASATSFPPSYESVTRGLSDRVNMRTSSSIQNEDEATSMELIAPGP
The assay can be described thus: 14C Guanidinium Ion Influx Binding Assay (flux assay). Type of assay: cell-based. The note with it: activity towards PN3, PN3 stably expressed in a host cell line, deltamethrine 10 μM. The method, then:
1.1 ^14C Guanidinium Ion Influx Binding Assay
PN3 stably expressed in a host cell line were maintained in DMEM with 5% fetal bovine serum and 300 μg/ml G-418. The cells were subcultured and grown to confluence in 96-well plates 24-48 h before each experiment. After the growth medium was removed, the cells were washed with warm buffer (25 mM Hepes-Tris, 135 mM choline chloride, 5.4 mM potassium chloride, 0.98 mM magnesium sulfate, 5.5 mM glucose, and 1 mg/ml BSA, pH 7.4) and incubated in buffer on a 36° C. slide wanner for approximately 10 minutes. Various concentrations of the test compounds or standard sodium channel blockers (10 μM) and then deltamethrine (10 μM) were added to each well. After the cells were exposed to deltamethrine for 5 minutes, 5 μM of ^14C-guanidinium was added, incubated with the radioligand (30-60 min), washed with ice-cold buffer, and dissolved in 0.1N sodium hydroxide. The radioactivity and the protein concentration of each cell lysate were determined by liquid scintillation counting and the protein assay using Pierce BCA reagent.
Consider `CCCCc1ccc(C(=O)N2CCC(n3c(C)nc4ccccc43)CC2)cc1` [Compound 203, (4-Butyl-phenyl)-[4-(2-methyl-benzoimidazol-1-yl)-piperidin-1-yl]-methanone], for which the IC50 lay within 4.1 to 10 µM. `CCCCc1ccc(C(=O)N2CC=C(n3c(=O)n(C)c4ccccc43)CC2)cc1` [Compound 206, 1-[1-(4-Butyl-benzoyl)-1,2,3,6-tetrahydro-pyridin-4-yl]-3-methyl-1,3-dihydro-benzoimidazol-2-one] showed an IC50 of 0.1 to 4 µM. In turn, `CCCCCCNc1nc2ccccc2n1C1CCN(C(=O)c2ccc(CCCC)cc2)CC1` [Compound 188, (4-Butyl-phenyl)-[4-(2-hexylamino-benzoimidazol-1-yl)-piperidin-1-yl]-methanone] showed an IC50 of 0.1 to 4 µM. Turning to `CCCCc1ccc(C(=O)N2CCC(n3c(=O)[nH]c4cccnc43)CC2)cc1` [Compound 200, 3-[1-(4-Butyl-benzoyl)-piperidin-4-yl]-1,3-dihydro-imidazo[4,5-b]pyridin-2-one], the IC50 was in the range of 0.1 to 4 µM. With `CCCCc1ccc(C(=O)N2CCC(n3c(NCc4ccccn4)nc4ccccc43)CC2)cc1` [Compound 185, (4-Butyl-phenyl)-(4-{2-[(pyridin-2-ylmethyl)-amino]-benzoimidazol-1-yl}-piperidin-1-yl)-methanone], the IC50 fell in the range of 4.1 to 10 µM. As to `CCCCc1ccc(C(=O)N2CC=C(n3c(=O)n(Cc4ccccc4)c4ccccc43)CC2)cc1` [Compound 208, 1-Benzyl-3-[1-(4-butyl-benzoyl)-1,2,3,6-tetrahydro-pyridin-4-yl]-1,3-dihydro-benzoimidazol-2-one], the IC50 fell in the range of 0.1 to 4 µM. Turning to `O=c1[nH]c2ccccc2n1C1CCN(S(=O)(=O)c2ccc3ccccc3c2)CC1` [Compound 304, 1-[1-(Naphthalene-2-sulfonyl)-piperidin-4-yl]-1,3-dihydro-benzoimidazol-2-one], the IC50 lay in the range of 4.1 to 10 µM.

For `CCCCc1ccc(C(=O)N2CCC(n3c(=O)n(C)c4ccccc43)CC2)cc1` [Compound 150, 1-[1-(4-Butyl-benzoyl)-piperidin-4-yl]-3-methyl-1,3-dihydro-benzoimidazol-2-one], the IC50 was in the range of 0.1 to 4 µM.

In turn, `CCCCc1ccc(C(=O)N2CCC(n3c(=O)n(Cc4ccncc4)c4ccccc43)CC2)cc1` [Compound 198, 1-[1-(4-Butyl-benzoyl)-piperidin-4-yl]-3-pyridin-4-ylmethyl-1,3-dihydro-benzoimidazol-2-one] yielded an IC50 of 0.1 to 4 µM. `CCCCc1ccc(C(=O)N2CCC(n3c(=O)[nH]c4cc(F)ccc43)CC2)cc1` [Compound 160, 1-[1-(4-Butyl-benzoyl)-piperidin-4-yl]-5-fluoro-1,3-dihydro-benzoimidazol-2-one] gave an IC50 of 0.1 to 4 µM. As for `CCCCc1ccc(C(=O)N2CCC(n3c(NCc4ccccc4)nc4ccccc43)CC2)cc1` [Compound 300, [4-(2-Benzylamino-benzoimidazol-1-yl)-piperidin-1-yl]-(4-butyl-phenyl)-methanone], the IC50 was 0.1 to 4 µM. Next, `CCCCc1ccc(C(=O)N2CC=C(n3c(=O)[nH]c4ccccc43)CC2)cc1` [Compound 181, 1-[1-(4-Butyl-benzoyl)-1,2,3,6-tetrahydro-pyridin-4-yl]-1,3-dihydro-benzoimidazol-2-one]: 0.1 to 4 µM; `CCCCc1ccc(C(=O)N2CCC(n3c(=O)[nH]c4ccccc43)CC2)cc1` [Compound 34, 1-[1-(4-Butyl-benzoyl)-piperidin-4-yl]-1,3-dihydro-benzoimidazol-2-one]: 0.1 to 4 µM.

One may read the IC50 as the concentration needed to halve the response being measured. Lower therefore signals higher potency.
